# Laboratory results reported in US8283106B2, “Sulfonic acid salt and derivative thereof, photoacid generator agent, and resist material and pattern formation method using the photoacid generator agent” (Central Glass Company, Limited, priority 2007, dated 2012).
# Where two headings read alike, the source gives them in different places.
# Experiments:
# [1] = Resist compatibility of acid generator with base resin in resist composition; assay type: physicochemical; settings: for Compatibility: acid generator (1.0), PGMEA (400)
# Method: Resist compositions were prepared using the above sulfonic acid onium salts PAG 1 and PAG 2 as acid generators and the following polymers (Resin 1 to 5) as base resins. Resist solutions were obtained by filtering the resist compositions with […] membrane filters, respectively.
# Each of the obtained resist solutions was spin-coated on a silicon wafer to form a resist film of 250 nm thickness. The resist film was prebaked at 110° C., exposed to a 248-nm ultraviolet ray through a photomask, and then, subjected to post exposure baking treatment at 120° C. After that, the resist film was developed with a […] aqueous tetramethylammonium hydroxide solution for 1 minute at 23° C.
# For comparison purposes, the above sulfonic acid onium salts PAG 3, PAG 4 and PAG 7 were tested for the resist compatibility and resist resolution under the same conditions as to the above working examples.
# [2] = Resist solvent solubility; assay type: physicochemical
# Method: Using propylene glycol monomethyl ether acetate (PGMEA) as a resist solvent, the solubility of PAG 1 to PAG 6 in the resist solvent was measured.
Compatibility ([1]; Resin 1 (40 pts. wt.)),Compatibility ([1]; Resin 2 (40 pts. wt.)),Compatibility ([1]; Resin 3 (40 pts. wt.)),Compatibility ([1]; Resin 4 (40 pts. wt.)),Compatibility ([1]; Resin 5 (40 pts. wt.)),resist compatibility compared with the conventional salts ([1]; summary of TABLES 2 and 3),resist solvent solubility relative to urethane bond-free sulfonic acid onium salts (PAG 3 to PAG 6) ([2]; PGMEA),Compound,Solubility ([2]; resist solvent propylene glycol monomethyl ether acetate (PGMEA)),Solubility [2]
Good,Good,Good,Good,Good,higher resist compatibility,twice or more higher,"O=C(NC12CC3CC(CC(C3)C1)C2)OCC(F)(F)S(=O)(=O)O [PAG 2, triphenylsulfonium adamantane-1-yl-carbamic acid-2,2-difluoroethylsulfonate]",0.7 parts by weight of PAG dissolved in 100 parts by weigh of PGMEA,–
–,–,–,–,–,–,–,"O=C(OCC(F)(F)S(=O)(=O)O)C12CC3CC(CC(C3)C1)C2 [PAG 6, triphenylsulfonium 2-(1′-adamantane)carbonyloxy-1,1-difluoroethanesulfonate]",–,0.2 parts by weight of PAG dissolved in 100 parts by weigh of PGMEA
Slightly poor,Slightly poor,Slightly poor,Slightly poor,Slightly poor,–,–,triphenylsulfonium cyclohexyloxycarbonyldifluoromethanesulfonate [PAG 3],–,0.4 parts by weight of PAG dissolved in 100 parts by weigh of PGMEA

Compound,Compatibility ([1]; Resin 1 (40 pts. wt.)),Compatibility ([1]; Resin 2 (40 pts. wt.)),Compatibility ([1]; Resin 3 (40 pts. wt.)),Compatibility ([1]; Resin 4 (40 pts. wt.)),Compatibility ([1]; Resin 5 (40 pts. wt.)),resist compatibility compared with the conventional salts ([1]; summary of TABLES 2 and 3),resist solvent solubility relative to urethane bond-free sulfonic acid onium salts (PAG 3 to PAG 6) ([2]; PGMEA),Solubility ([2]; resist solvent propylene glycol monomethyl ether acetate (PGMEA)),Solubility [2]
"O=C(OCC12CC3CC(CC(C3)C1)C2)C(F)(F)S(=O)(=O)O [PAG 4, triphenylsulfonium (adamantane-1-yl-methyl)oxycarbonyldifluoromethanesulfonate]",Good,Good,Good,Good,Good,–,–,–,0.3 parts by weight of PAG dissolved in 100 parts by weigh of PGMEA
